Experimental data: US20100056524A1, “Compound” (priority 2008, published 2010)
Structures can show the parent of a compound that is named as a salt.

The compounds below were run against T1, TBK1 (Homo sapiens, UniProt Q9UHD2) (assay: TBK1 protein kinase assay ([γ-33P]ATP, P81 filterplates)). Conditions: 50 μM ATP; read-out: Potency (TBK1 IC50 potency score).
T1 construct: All protein kinases were of human origin and encoded full length proteins, unless indicated otherwise; His6; made in house; host or cells: insect Sf21 cells
T1 sequence (Q9UHD2 1-729): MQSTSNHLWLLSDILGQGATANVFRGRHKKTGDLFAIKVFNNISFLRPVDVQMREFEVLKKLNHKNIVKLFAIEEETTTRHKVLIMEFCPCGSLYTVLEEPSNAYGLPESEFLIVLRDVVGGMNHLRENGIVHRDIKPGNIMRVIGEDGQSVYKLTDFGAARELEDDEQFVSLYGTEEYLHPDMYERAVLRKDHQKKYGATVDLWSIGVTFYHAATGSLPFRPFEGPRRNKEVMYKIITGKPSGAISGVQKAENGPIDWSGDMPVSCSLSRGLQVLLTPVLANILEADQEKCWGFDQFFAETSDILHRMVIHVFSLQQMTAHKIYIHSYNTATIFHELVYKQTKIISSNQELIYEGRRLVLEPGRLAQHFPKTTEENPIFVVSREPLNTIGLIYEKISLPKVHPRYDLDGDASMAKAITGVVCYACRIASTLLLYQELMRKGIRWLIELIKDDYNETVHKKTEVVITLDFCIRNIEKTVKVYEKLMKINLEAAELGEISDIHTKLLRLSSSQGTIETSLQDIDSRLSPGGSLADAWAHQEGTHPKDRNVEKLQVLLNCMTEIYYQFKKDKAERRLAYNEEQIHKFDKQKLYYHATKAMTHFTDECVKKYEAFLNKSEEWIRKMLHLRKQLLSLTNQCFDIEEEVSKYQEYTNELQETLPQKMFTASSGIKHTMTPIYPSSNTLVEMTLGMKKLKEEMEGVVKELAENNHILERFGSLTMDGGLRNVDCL
Type: biochemical
Procedure, shortened: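 Human TBK1 assayed for 30 min with peptide substrate (300 μM), 50 μM [γ-33P]ATP and 10 mM magnesium acetate in 50 mM Tris/HCl pH 7.5, 0.1 mM EGTA, 0.1% 2-mercaptoethanol. Stopped with orthophosphoric acid and counted on P81 filters. IC50 from 10 compound concentrations.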
In the case of `O=C(NCCCNc1nc(Nc2ccc3[nH]c(C(F)(F)F)nc3c2)ncc1C1CC1)c1cccs1` [Example 62, Thiophene-2-carboxylic acid {3-[5-cyclopropyl-2-(2-trifluoromethyl-1H-benzimidazol-5-ylamino)-pyrimidin-4-ylamino]-propyl}-amide], the IC50 is reported as 1000 to 10000 nM. `O=C(NCCCNc1nc(Nc2ccncc2)ncc1C1CC1)c1cccs1` [Example 63, Thiophene-2-carboxylic acid {3-[5-cyclopropyl-2-(pyridin-4-ylamino)-pyrimidin-4-ylamino]-propyl}-amide] gave an IC50 of 100 to 1000 nM. In the case of `O=C(NCCCNc1nc(Nc2cncc(F)c2)ncc1C1CC1)C1CCC1` [Example 64, Cyclobutanecarboxylic acid {3-[5-cyclopropyl-2-(5-fluoro-pyridin-3-ylamino)-pyrimidin-4-ylamino]-propyl}-amide], the IC50 is reported as under 100 nM. `O=C(NCCCNc1nc(Nc2cccnc2)ncc1C1CC1)C1CCC1` [Example 65, Cyclobutanecarboxylic acid {3-[5-cyclopropyl-2-(pyridin-3-ylamino)-pyrimidin-4-ylamino]-propyl}-amide] was tested, and the IC50 was under 100 nM. Compound `O=C(NCCCNc1nc(Nc2cccnc2)ncc1C1CC1)C1CCCC1` [Example 66, Cyclopentanecarboxylic acid {3-[5-cyclopropyl-2-(pyridin-3-ylamino)-pyrimidin-4-ylamino]-propyl}-amide] has an IC50 of under 100 nM. `CC(=O)Nc1cccc(Nc2ncc(C3CC3)c(NCCCNC(=O)C3CCCC3)n2)c1` [Example 67, Cyclopentanecarboxylic acid {3-[2-(3-acetylamino-phenylamino)-5-cyclopropyl-pyrimidin-4-ylamino]-propyl}-amide] gave an IC50 of under 100 nM. For `CC(=O)Nc1cccc(Nc2ncc(C3CC3)c(NCCCNC(=O)C3CCC3)n2)c1` [Example 68, Cyclobutanecarboxylic acid {3-[2-(3-acetylamino-phenylamino)-5-cyclopropyl-pyrimidin-4-ylamino]-propyl}-amide], the IC50 was under 100 nM. For `Nc1cccc(Nc2ncc(C3CC3)c(NCCCNC(=O)c3cccs3)n2)c1` [Example 69, Thiophene-2-carboxylic acid {3-[2-(3-amino-phenylamino)-5-cyclopropyl-pyrimidin-4-ylamino]-propyl}-amide], the IC50 was under 100 nM. `O=C(NCCCNc1nc(Nc2cccc(CO)c2)ncc1C1CC1)C1CCC1` [Example 70, Cyclobutanecarboxylic acid {3-[5-cyclopropyl-2-(3-hydroxymethyl-phenylamino)-pyrimidin-4-ylamino]-propyl}-amide. xHCl salt] gave an IC50 of under 100 nM. Work on `O=C(O)c1cccc(Nc2ncc(C3CC3)c(NCCCNC(=O)C3CCC3)n2)c1` [Example 71, 3-{4-[3-(Cyclobutanecarbonyl-amino)-propylamino]-5-cyclopropyl-pyrimidin-2-ylamino}-benzoic acid hydrochloride salt] yielded an IC50 of under 100 nM. `O=C(NCCCNc1nc(Nc2cc(F)cc(F)c2)ncc1C1CC1)C1CCC1` [Example 72, Cyclobutanecarboxylic acid {3-[5-cyclopropyl-2-(3,5-difluoro-phenylamino)-pyrimidin-4-ylamino]-propyl}-amide. Hydrochloride salt] was tested, and the IC50 was under 100 nM. `COCCNC(=O)c1cccc(Nc2ncc(C3CC3)c(NCCCNC(=O)C3CCC3)n2)c1` [Example 73, 3-{4-[3-(Cyclobutanecarbonyl-amino)-propylamino]-5-cyclopropyl-pyrimidin-2-ylamino}-N-(2-methoxy-ethyl)-benzamide] was tested, and the IC50 was under 100 nM. Compound `O=C(NCCc1c[nH]cn1)c1cccc(Nc2ncc(C3CC3)c(NCCCNC(=O)C3CCC3)n2)c1` [Example 74, 3-{4-[3-(Cyclobutanecarbonyl-amino)-propylamino]-5-cyclopropyl-pyrimidin-2-ylamino}-N-[2-(1H-imidazol-4-yl)-ethyl]-benzamide] has an IC50 of under 100 nM. `O=C(NCCCNc1nc(Nc2cccc(C(=O)N3CCOCC3)c2)ncc1C1CC1)C1CCC1` [Example 75, Cyclobutanecarboxylic acid (3-{5-cyclopropyl-2-[3-(morpholine-4-carbonyl)-phenylamino]-pyrimidin-4-ylamino}-propyl)-amide] gave an IC50 of under 100 nM. For `CN(C)CCN(C)C(=O)c1cccc(Nc2ncc(C3CC3)c(NCCCNC(=O)C3CCC3)n2)c1` [Example 76, 3-{4-[3-(Cyclobutanecarbonyl-amino)-propylamino]-5-cyclopropyl-pyrimidin-2-ylamino}-N-(2-dimethylamino-ethyl)-N-methyl-benzamide], the IC50 was under 100 nM. Compound `CN1CCN(C(=O)c2cccc(Nc3ncc(C4CC4)c(NCCCNC(=O)C4CCC4)n3)c2)CC1` [Example 77, Cyclobutanecarboxylic acid (3-{5-cyclopropyl-2-[3-(4-methyl-piperazine-1-carbonyl)-phenylamino]-pyrimidin-4-ylamino}-propyl)-amide] has an IC50 of under 100 nM. `CN1CCC(CNC(=O)c2cccc(Nc3ncc(C4CC4)c(NCCCNC(=O)C4CCC4)n3)c2)CC1` [Example 78, 3-{4-[3-(Cyclobutanecarbonyl-amino)-propylamino]-5-cyclopropyl-pyrimidin-2-ylamino}-N-(1-methyl-piperidin-4-ylmethyl)-benzamide] showed an IC50 of under 100 nM. Work on `CN(C)CCCN(C)C(=O)c1cccc(Nc2ncc(C3CC3)c(NCCCNC(=O)C3CCC3)n2)c1` [Example 79, 3-{4-[3-(Cyclobutanecarbonyl-amino)-propylamino]-5-cyclopropyl-pyrimidin-2-ylamino}-N-(3-dimethylamino-propyl)-N-methyl-benzamide] yielded an IC50 of under 100 nM. With `CN(CCN1CCOCC1)C(=O)c1cccc(Nc2ncc(C3CC3)c(NCCCNC(=O)C3CCC3)n2)c1` [Example 80, 3-{4-[3-(Cyclobutanecarbonyl-amino)-propylamino]-5-cyclopropyl-pyrimidin-2-ylamino}-N-methyl-N-(2-morpholin-4-yl-ethyl)-benzamide] the IC50 was under 100 nM. For `CN(C)C1CCN(C(=O)c2cccc(Nc3ncc(C4CC4)c(NCCCNC(=O)C4CCC4)n3)c2)CC1` [Example 81, Cyclobutanecarboxylic acid (3-{5-cyclopropyl-2-[3-(4-dimethylamino-piperidine-1-carbonyl)-phenylamino]-pyrimidin-4-ylamino}-propyl)-amide], the IC50 was under 100 nM. In the case of `CN1CCC(NC(=O)c2cccc(Nc3ncc(C4CC4)c(NCCCNC(=O)C4CCC4)n3)c2)CC1` [Example 82, 3-{4-[3-(Cyclobutanecarbonyl-amino)-propylamino]-5-cyclopropyl-pyrimidin-2-ylamino}-N-(1-methyl-piperidin-4-yl)-benzamide], the IC50 is reported as 100 to 1000 nM. Compound `O=C(NCCCNc1nc(Nc2cccc(Cn3cncn3)c2)ncc1C1CC1)C1CCC1` [Example 83, Cyclobutanecarboxylic acid {3-[5-cyclopropyl-2-(3-1,2,4-triazol-1-ylmethyl-phenylamino)-pyrimidin-4-ylamino]-propyl}-amide] has an IC50 of under 100 nM. `Cn1ccc(-c2cccc(Nc3ncc(C4CC4)c(NCCCNC(=O)C4CCC4)n3)c2)n1` [Example 84, Cyclobutanecarboxylic acid (3-{5-cyclopropyl-2-[3-(1-methyl-1H-pyrazol-3-yl)-phenylamino]-pyrimidin-4-ylamino}-propyl)-amide] showed an IC50 of under 100 nM. In the case of `O=C(NCCCNc1nc(Nc2ccc(F)c(F)c2)ncc1C1CC1)C1CCC1` [Example 85, Cyclobutanecarboxylic acid {3-[5-cyclopropyl-2-(3,4-difluoro-phenylamino)-pyrimidin-4-ylamino]-propyl}-amide], the IC50 is reported as under 100 nM. Compound `O=C(NCCCNc1nc(Nc2cccc(-n3cncn3)c2)ncc1C1CC1)C1CCC1` [Example 86, Cyclobutanecarboxylic acid (3-{5-cyclopropyl-2-[3-(2H-1,2,4-triazol-1-yl)-phenylamino]-pyrimidin-4-ylamino}-propyl)-amide] has an IC50 of under 100 nM. `O=C(NCCCNc1nc(Nc2cccc(-c3cnco3)c2)ncc1C1CC1)C1CCC1` [Example 87, Cyclobutanecarboxylic acid {3-[5-cyclopropyl-2-(3-oxazol-5-yl-phenylamino)-pyrimidin-4-ylamino]-propyl}-amide] gave an IC50 of under 100 nM. `O=C1NCc2ccc(Nc3ncc(C4CC4)c(NCCCNC(=O)C4CCC4)n3)cc21` [Example 88, Cyclobutanecarboxylic acid {3-[5-cyclopropyl-2-(3-oxo-2,3-dihydro-1H-isoindol-5-ylamino)-pyrimidin-4-ylamino]-propyl}-amide hydrochloride salt] showed an IC50 of under 100 nM. `O=C(NCc1ncc[nH]1)c1cccc(Nc2ncc(C3CC3)c(NCCCNC(=O)C3CCC3)n2)c1` [Example 89, 3-{4-[3-(Cyclobutanecarbonyl-amino)-propylamino]-5-cyclopropyl-pyrimidin-2-ylamino}-N-(1H-imidazol-2-ylmethyl)-benzamide. Hydrochloride salt] was tested, and the IC50 was under 100 nM.
